These results are taken from patent publication US20050260730A1, “CDK2/cyclin A crystals and uses thereof” (priority 2003, published 2005).

pIC50: −log10 of the molar value. Read-outs that look alike come from different tables or passages of the source. Non-standard residues stand in square brackets, D forms with d. Residues, ends and D or L forms follow the SMILES beside them. Phe(4-F) = N[C@@H](Cc1ccc(F)cc1)C(=O)O Some results are limits rather than exact numbers.

In test [1] the target is cyclin A (Homo sapiens, UniProt P20248). Put plainly: Competitive cyclin A binding assay.
Test [2] has as its target CDK2/cyclin A (Homo sapiens, UniProt P20248). The test is described as follows: CDK2/cyclin A kinase activity assay. The class given is biochemical.
Where [3] appears, read: read-out: IC50 CDK2/cyclin A kinase activity.

Chain of cyclin A (P20248 whole entry): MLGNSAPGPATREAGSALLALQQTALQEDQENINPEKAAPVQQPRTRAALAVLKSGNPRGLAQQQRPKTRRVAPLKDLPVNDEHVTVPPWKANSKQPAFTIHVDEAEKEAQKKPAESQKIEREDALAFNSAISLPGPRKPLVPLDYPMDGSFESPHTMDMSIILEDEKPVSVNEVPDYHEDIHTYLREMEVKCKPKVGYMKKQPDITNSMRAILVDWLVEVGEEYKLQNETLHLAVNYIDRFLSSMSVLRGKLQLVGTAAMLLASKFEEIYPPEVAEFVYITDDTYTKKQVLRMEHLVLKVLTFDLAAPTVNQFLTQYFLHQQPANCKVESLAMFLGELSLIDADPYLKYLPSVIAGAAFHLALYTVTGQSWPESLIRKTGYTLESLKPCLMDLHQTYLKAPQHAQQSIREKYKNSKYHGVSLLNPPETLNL

Take `CC(C)C[C@H](NC(=O)[C@H](CCCNC(=N)N)NC(=O)[C@@H](N)CCCNC(=N)N)C(=O)N[C@@H](Cc1ccccc1)C(N)=O` [SEQ ID NO: 20, H-Arg-Arg-Leu-Phe-NH2] (H-RRLF-NH2): the figures for the pIC50 in test [1] and in test [2] (setting [3]) were 5.09 and < 4.30, respectively.
In the same order, the values of `CC(C)C[C@H](NC(=O)[C@H](CCCNC(=N)N)NC(=O)[C@@H](N)CCCNC(=N)N)C(=O)N[C@@H](Cc1ccc(F)cc1)C(N)=O` [SEQ ID NO: 29, H-Arg-Arg-Leu-—-(p-F-Phe)-NH2] (H-RRL[Phe(4-F)]-NH2) are 4.72 and 4.30.
As for `CC(=O)N[C@@H](CCCN=C(N)N)C(=O)N[C@@H](CCCN=C(N)N)C(=O)N[C@@H](CC(C)C)C(=O)N[C@@H](CC(N)=O)C(=O)N[C@@H](Cc1ccccc1)C(N)=O` [SEQ ID NO: 30, Ac-Arg-Arg-Leu-Asn-Phe-NH2], in test [2], the pIC50 was < 4.30.
